The results in this text go back to patent US20230073777A1, “CYCLIC-AMP RESPONSE ELEMENT BINDING PROTEIN (CBP) AND/OR ADENOVIRAL E1A BINDING PROTEIN OF 300 KDA (P300) DEGRADATION COMPOUNDS AND METHODS OF USE” (CULLGEN (SHANGHAI), INC., priority 2019, published 2023).

Holding throughout (type): cell-based
One test relates to 22Rv1. As to the kind of experiment: Cell viability assay, 22Rv1. The conditions noted are these: Homo sapiens, 22Rv1, Prostate carcinoma. The protocol: (§1) Cells were seeded at a density of 5000 cells per well in 96-well assay plates and treated with test compounds following a 12-point 3-fold serial dilution. Three days later, cell viability was determined using the CellTiter-Glo assay kit according to the manufacturer's instructions. The dose-response curves were determined and IC50 values were calculated using the GraphPad Prism software following a nonlinear regression (least squares fit) method.
(§2) The IC50 value of each compound was determined as described in FIG. 4 and calculated using the GraphPad Prism 5.0 software.

The next test has as its system AMO-1. As to the kind of experiment: Cell viability assay, AMO-1. The conditions noted are these: Homo sapiens, AMO1, AMO-1, Multiple Myeloma. The protocol:
as §1, §2

The subject of the next test is MEG-01. Put plainly: Cell viability assay, MEG-01. The conditions noted are these: Homo sapiens, MEG-01, Chronic myeloid leukemia. The procedure:
as §1, §2

For the next test, the system named is LK-2. As to the kind of experiment: Cell viability assay, LK-2. To be noted: Homo sapiens, LK-2, Non-small cell lung cancer. The protocol: as §1, §2
The next test has as its system MOLM-13. As to the kind of experiment: Cell viability assay, MOLM-13. The conditions noted are these: Homo sapiens, MOLM-13, Acute monocytic leukemia. The procedure:
as §1, §2

A further test deals with NCI-H929. Put plainly: Cell viability assay, NCI-H929. The conditions noted are these: Homo sapiens, NCI-H929, Multiple Myeloma. The protocol:
as §1, §2

Another test concerns Kasumi-1. Put plainly: Cell viability assay, Kasumi-1. To be noted: Homo sapiens, Kasumi-1, Acute myeloid leukemia. The procedure:
as §1, §2

Another test concerns Karpas-422. Put plainly: Cell viability assay, Karpas-422. To be noted: Homo sapiens, Karpas-422, Diffuse large B-cell lymphoma. The protocol:
as §1, §2

For the next test, the target named is P300 (Homo sapiens, UniProt Q09472). As to the kind of experiment: Immunoblotting of P300 protein levels in LNCaP or 22RV1 cells. Further details: LNCaP or 22RV1 cells that express CBP/P300 proteins were treated with GNE-781 or the bivalent compounds; endogenous in cells; host or cells: LNCaP (clone FGC) or 22RV1 cells. The conditions noted are these: for inhibition at 0.01 µM: percentage of inhibition of p300 at 10 nM (Table 2), read-out: Degradation (10 nM). A digest of the protocol: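 LNCaP or 22RV1 cells treated with compounds for indicated hours, DMSO as negative control. RIPA lysates resolved by SDS-PAGE and immunoblotted for P300 or CBP, tubulin or vinculin as loading control; chemiluminescent bands quantitated.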
P300, sequence (Q09472 whole entry): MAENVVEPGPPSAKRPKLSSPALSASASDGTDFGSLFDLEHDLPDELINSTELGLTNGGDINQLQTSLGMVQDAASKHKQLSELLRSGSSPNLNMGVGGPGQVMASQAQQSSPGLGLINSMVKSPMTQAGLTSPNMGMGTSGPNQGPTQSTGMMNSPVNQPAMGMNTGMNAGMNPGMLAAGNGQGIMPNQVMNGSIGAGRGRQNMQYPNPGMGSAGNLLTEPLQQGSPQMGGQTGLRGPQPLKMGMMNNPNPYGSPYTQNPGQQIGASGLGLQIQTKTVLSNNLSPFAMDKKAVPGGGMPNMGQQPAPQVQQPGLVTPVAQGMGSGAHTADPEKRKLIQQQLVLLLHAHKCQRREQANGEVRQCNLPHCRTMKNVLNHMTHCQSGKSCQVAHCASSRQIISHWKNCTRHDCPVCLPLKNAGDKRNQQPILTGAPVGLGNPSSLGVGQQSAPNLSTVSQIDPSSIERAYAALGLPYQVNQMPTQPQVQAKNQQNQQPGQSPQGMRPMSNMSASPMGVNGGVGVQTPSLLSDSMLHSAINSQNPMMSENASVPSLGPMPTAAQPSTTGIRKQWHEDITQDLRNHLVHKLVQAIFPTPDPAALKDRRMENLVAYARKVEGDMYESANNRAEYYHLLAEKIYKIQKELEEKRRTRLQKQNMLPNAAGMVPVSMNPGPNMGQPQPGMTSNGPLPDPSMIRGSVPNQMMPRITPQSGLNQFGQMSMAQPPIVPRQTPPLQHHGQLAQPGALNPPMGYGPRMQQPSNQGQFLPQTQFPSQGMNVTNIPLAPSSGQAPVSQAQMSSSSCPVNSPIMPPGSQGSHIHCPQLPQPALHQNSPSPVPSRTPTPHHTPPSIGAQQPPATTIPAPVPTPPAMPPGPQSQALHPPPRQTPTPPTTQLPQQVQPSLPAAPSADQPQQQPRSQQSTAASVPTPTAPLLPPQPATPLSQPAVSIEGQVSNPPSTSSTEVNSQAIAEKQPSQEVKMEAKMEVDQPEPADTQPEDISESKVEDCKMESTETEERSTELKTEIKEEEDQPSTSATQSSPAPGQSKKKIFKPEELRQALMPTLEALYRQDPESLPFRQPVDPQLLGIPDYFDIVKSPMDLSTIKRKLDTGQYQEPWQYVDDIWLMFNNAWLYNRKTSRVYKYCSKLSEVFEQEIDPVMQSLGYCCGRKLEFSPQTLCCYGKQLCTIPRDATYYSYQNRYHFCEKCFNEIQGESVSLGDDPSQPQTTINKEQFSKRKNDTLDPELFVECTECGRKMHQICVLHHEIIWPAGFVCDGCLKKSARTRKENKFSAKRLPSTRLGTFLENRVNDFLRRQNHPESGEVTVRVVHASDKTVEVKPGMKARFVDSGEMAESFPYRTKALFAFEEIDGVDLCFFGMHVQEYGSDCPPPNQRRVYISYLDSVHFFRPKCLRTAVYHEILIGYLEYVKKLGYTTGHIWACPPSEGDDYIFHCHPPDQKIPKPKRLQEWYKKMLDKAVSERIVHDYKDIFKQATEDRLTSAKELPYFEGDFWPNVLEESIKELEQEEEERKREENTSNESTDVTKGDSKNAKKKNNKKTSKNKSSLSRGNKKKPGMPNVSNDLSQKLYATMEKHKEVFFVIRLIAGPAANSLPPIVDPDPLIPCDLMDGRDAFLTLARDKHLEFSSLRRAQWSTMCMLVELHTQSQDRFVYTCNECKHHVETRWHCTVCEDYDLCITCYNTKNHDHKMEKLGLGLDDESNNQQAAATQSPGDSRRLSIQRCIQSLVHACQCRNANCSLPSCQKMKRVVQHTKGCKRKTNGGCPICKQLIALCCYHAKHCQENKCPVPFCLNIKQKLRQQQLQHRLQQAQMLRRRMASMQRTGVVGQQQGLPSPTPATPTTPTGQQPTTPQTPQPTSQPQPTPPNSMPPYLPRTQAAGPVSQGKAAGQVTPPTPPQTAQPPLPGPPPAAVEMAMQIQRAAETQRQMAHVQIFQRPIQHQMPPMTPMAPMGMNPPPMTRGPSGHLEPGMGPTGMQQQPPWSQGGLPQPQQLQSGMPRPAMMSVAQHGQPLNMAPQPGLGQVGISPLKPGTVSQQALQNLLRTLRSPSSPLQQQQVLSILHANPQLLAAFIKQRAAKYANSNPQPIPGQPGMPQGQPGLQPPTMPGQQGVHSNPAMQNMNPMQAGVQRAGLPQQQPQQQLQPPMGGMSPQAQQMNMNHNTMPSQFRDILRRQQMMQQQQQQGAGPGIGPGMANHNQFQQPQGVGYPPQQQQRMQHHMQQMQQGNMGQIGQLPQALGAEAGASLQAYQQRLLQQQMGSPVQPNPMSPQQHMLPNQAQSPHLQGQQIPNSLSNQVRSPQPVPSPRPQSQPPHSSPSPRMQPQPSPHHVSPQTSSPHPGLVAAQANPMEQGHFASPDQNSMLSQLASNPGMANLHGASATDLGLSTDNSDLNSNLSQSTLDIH

Another test concerns NOMO-1. Put plainly: Cell viability assay, NOMO-1. To be noted: Homo sapiens, NOMO-1, Acute monocytic leukemia. The protocol:
as §1, §2

Another test has as its system NCI-H1703. As to the kind of experiment: Cell viability assay, NCI-H1703. To be noted: Homo sapiens, NCI-H1703, Non-small cell lung cancer. The protocol: as §1, §2

In the case of `CNC(=O)N1CCc2c(c(N3CCCc4cc(-c5cnn(C)c5)c(C(F)F)cc43)nn2C2CCN(C(=O)CCCCCCCNc3ccc4c(c3)C(=O)N(C3CCC(=O)NC3=O)C4=O)CC2)C1` (stereo not drawn) [P-007, 3-(7-(difluoromethyl)-6-(1-methyl-1H-pyrazol-4-yl)-3,4-dihydroquinolin-1(2H)-yl)-1-(1-(8-((2-(2,6-dioxopiperidin-3-yl)-1,3-dioxoisoindolin-5-yl)amino)octanoyl)piperidin-4-yl)-N-methyl-1,4,6,7-tetrahydro-5H-pyrazolo[4,3-c]pyridine-5-carboxamide], the IC50 in the test on 22Rv1 was 3.2 nM; in the test with AMO-1, 38.7 nM; in the test on MEG-01 it was 7.9 nM; in the test on LK-2, 2.6 nM; in the test with MOLM-13, 7.7 nM; with NCI-H929 it was 0.9 nM. The IC50 in the test on Kasumi-1 came out at 87.8 nM; in the test on Karpas-422, 6.2 nM. At P300, the inhibition at 0.01 µM was more than 80%.

Take `CNC(=O)N1CCc2c(c(N3CCCc4cc(-c5cnn(C)c5)c(C(F)F)cc43)nn2C2CCN(C(=O)CCCCCNc3cccc4c3C(=O)N(C3CCC(=O)NC3=O)C4=O)CC2)C1` (stereo not drawn) [P-034, 3-(7-(difluoromethyl)-6-(1-methyl-1H-pyrazol-4-yl)-3,4-dihydroquinolin-1(2H)-yl)-1-(1-(6-((2-(2,6-dioxopiperidin-3-yl)-1,3-dioxoisoindolin-4-yl)amino)hexanoyl)piperidin-4-yl)-N-methyl-1,4,6,7-tetrahydro-5H-pyrazolo[4,3-c]pyridine-5-carboxamide]: the IC50 was 8.2 nM in the test with 22Rv1; 0.8 nM in the test with NOMO-1; 141 nM in the test with AMO-1; 2.9 nM with NCI-H1703; 15.3 nM in the test with MEG-01; 7 nM with LK-2. Besides, the 50% inhibitory concentration (IC50) worked out at 6.9 nM in the test with MOLM-13, 0.2 nM in the test on NCI-H929, 1150 nM in the test with Kasumi-1 and 0.9 nM in the test with Karpas-422. Moreover, the “P300 protein levels, dependence on interaction with cereblon” value on P300 (LNCaP or 22RV1 cells, various concentrations (FIG. 7)) was “P300 degradation induced by P-034”. The inhibition at 0.01 µM on P300 was more than 80%.
